Results taken from ChEMBL document CHEMBL1139542, “Synthesis, biological evaluation, and three-dimensional quantitative structure-activity relationship study of small-molecule positive modulators of adrenomedullin” (J Med Chem, 2005).

The molecules below were run on Adrenomedullin (Homo sapiens) (assay: Affinity against human adrenomedullin).

SMILES	Affinity
O=C(CCCCC(=O)NNC(=O)COc1ccccc1)NNC(=O)COc1ccccc1	1%
Nn1c(CCCCCCCCc2nnc(COc3ccc(Cl)cc3Cl)n2N)nnc1COc1ccc(Cl)cc1Cl	48%
c1ccc(Cn2c(CCCCCCCCc3nnc(COc4ccccc4)n3Cc3ccccc3)nnc2COc2ccccc2)cc1	4%
c1ccc(OCc2nnc(CCCCCCCCc3nnc(COc4ccccc4)o3)o2)cc1	5%
O=C(CCCCCCCCC(=O)NNC(=O)COc1ccccc1)NNC(=O)COc1ccccc1	25%
Nn1c(CCCCCCCCc2nnc(COc3ccc4ccccc4c3O)n2N)nnc1COc1ccc2ccccc2c1O	42%
c1ccc(Cn2c(CCCCCc3nnc(COc4ccccc4)n3Cc3ccccc3)nnc2COc2ccccc2)cc1	14%
Nn1c(CCCCCCCCc2nnc(COc3ccc(Cl)cc3)n2N)nnc1COc1ccc(Cl)cc1	19%
c1ccc(OCc2nnc(CCCCCc3nnc(COc4ccccc4)o3)o2)cc1	4%
c1ccc(Cn2c(CCCCCCCc3nnc(COc4ccccc4)n3Cc3ccccc3)nnc2COc2ccccc2)cc1	20%
Clc1ccc(OCc2nnc(CCCCCCCCc3nnc(COc4ccc(Cl)cc4Cl)n3Nc3ccccc3)n2Nc2ccccc2)c(Cl)c1	68%
c1ccc(Cn2c(CCCCc3nnc(COc4ccccc4)n3Cc3ccccc3)nnc2COc2ccccc2)cc1	19%
c1ccc(OCc2nnc(CCCCc3nnc(COc4ccccc4)o3)o2)cc1	18%
c1ccc(OCc2nnc(CCCCCCc3nnc(COc4ccccc4)o3)o2)cc1	10%
Oc1ccc2ccccc2c1OCc1nnc(CCCCCCCCc2nnc(COc3c(O)ccc4ccccc34)n2Nc2ccccc2)n1Nc1ccccc1	24%
O=C(CCCCCCC(=O)NNC(=O)COc1ccccc1)NNC(=O)COc1ccccc1	20%
Clc1ccc(OCc2nnc(CCCCCCCCc3nnc(COc4ccc(Cl)cc4)n3Nc3ccccc3)n2Nc2ccccc2)cc1	51%
c1ccc(OCc2nnc(CCCCCCCc3nnc(COc4ccccc4)o3)o2)cc1	6%
Nn1c(CCCCCCCCc2nnc(COc3c(O)ccc4ccccc34)n2N)nnc1COc1c(O)ccc2ccccc12	46%
c1ccc(Cn2c(CCCCCCc3nnc(COc4ccccc4)n3Cc3ccccc3)nnc2COc2ccccc2)cc1	3%
c1ccc(Nn2c(CCCCCCCCc3nnc(COc4ccccc4)n3Nc3ccccc3)nnc2COc2ccccc2)cc1	81%
O=C(CCCCCC(=O)NNC(=O)COc1ccccc1)NNC(=O)COc1ccccc1	16%
O=C(CCCCCCCC(=O)NNC(=O)COc1ccccc1)NNC(=O)COc1ccccc1	7%
Oc1c(OCc2nnc(CCCCCCCCc3nnc(COc4ccc5ccccc5c4O)n3Nc3ccccc3)n2Nc2ccccc2)ccc2ccccc12	83%
